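Cells were grown in 96-well plates and exposed to each compound for 48 hours at five concentrations; endpoints were interpolated linearly between bracketing concentrations, or set to the highest concentration if not reached. TGI is the concentration that stops growth completely.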
Key:
Experiment in all cases: inhibition of tumour cell growth, NCI panel, 48 h
SNB-75 CNS = test system: SNB-75 CNS
CAKI-1 renal = test system: CAKI-1 renal
NCI-H522 lung = test system: NCI-H522 lung
SK-MEL-5 melanoma = test system: SK-MEL-5 melanoma
MOLT-4 leukemia = test system: MOLT-4 leukemia
MDA-N = test system: MDA-N
HS 578T breast = test system: HS 578T breast
MALME-3M melanoma = test system: MALME-3M melanoma
RXF 393 renal = test system: RXF 393 renal
UO-31 renal = test system: UO-31 renal
MCF7 breast = test system: MCF7 breast
KM12 colon = test system: KM12 colon
T-47D breast = test system: T-47D breast
OVCAR-8 ovarian = test system: OVCAR-8 ovarian
HCT-116 colon = test system: HCT-116 colon
NCI-H460 lung = test system: NCI-H460 lung
SR leukemia = test system: SR leukemia
LXFL 529 NSCLC = test system: LXFL 529 NSCLC
DLD-1 colon = test system: DLD-1 colon
A498 renal = test system: A498 renal

Row | Compound | TGI (SNB-75 CNS) [µM] | TGI (CAKI-1 renal) [µM] | TGI (NCI-H522 lung) [µM] | TGI (SK-MEL-5 melanoma) [µM] | TGI (MOLT-4 leukemia) [µM] | TGI (MDA-N) [µM] | TGI (HS 578T breast) [µM] | TGI (MALME-3M melanoma) [µM] | TGI (RXF 393 renal) [µM] | TGI (UO-31 renal) [µM] | TGI (MCF7 breast) [µM] | TGI (KM12 colon) [µM] | TGI (T-47D breast) [µM] | TGI (OVCAR-8 ovarian) [µM] | TGI (HCT-116 colon) [µM] | TGI (NCI-H460 lung) [µM] | TGI (SR leukemia) [µM] | TGI (LXFL 529 NSCLC) [µM] | TGI (DLD-1 colon) [µM] | TGI (A498 renal) [µM]
1 | CCCO[C@@H]1[C@@H](OC(C)=O)[C@@H](OC(C)=O)C(C)(C)/C=C/[C@H](C)C(=O)[C@@]2(OC(C)=O)C[C@@](C)(OC(C)=O)[C@H](OC(C)=O)[C@@H]2[C@H]2OC(=O)CC[C@@]12OC(=O)c1ccccc1 | > 25 | > 25 | > 25 | > 25 | > 25 | > 25 | > 25 | > 25 | > 25 | > 25 | > 25 | > 25 | > 25 | > 25 | > 25 | > 25 | – | – | – | –
2 | COc1ccc(/C=N/n2cnc3c(c2=O)SC(=C(C#N)C#N)N3c2ccccc2)cc1 | 72.4 | – | > 100 | > 100 | > 100 | – | – | – | – | > 100 | – | > 100 | – | > 100 | > 100 | > 100 | > 100 | > 100 | > 100 | –
3 | Nc1nc(SCc2ccccc2Cl)c2[nH]cnc2n1 | – | – | > 100 | > 100 | > 100 | – | – | > 100 | > 100 | > 100 | – | > 100 | – | > 100 | > 100 | > 100 | > 100 | > 100 | > 100 | 73.1
4 | Cc1nc2ccc(S(=O)(=O)Nc3nccs3)cc2c(=O)n1NS(=O)(=O)c1nccs1 | > 100 | > 100 | > 100 | > 100 | > 100 | > 100 | > 100 | > 100 | > 100 | > 100 | > 100 | > 100 | > 100 | > 100 | – | > 100 | – | – | – | > 100
5 | CCOC(=O)c1sc2nc(SC)nc(Nc3ccc4c(c3)OCCO4)c2c1N | – | 49.2 | 23.8 | 26.7 | > 100 | > 100 | – | 30.5 | 16.9 | 36.7 | 23.6 | 78.5 | 26.2 | 23.1 | 42.1 | > 100 | > 100 | – | – | 27.4
6 | CCCCC1C=Cn2c(=O)oc3c(OC(C)C)c(C)c(O)c1c32 (stereo not drawn) | 4.83 | 2.34 | 5.87 | 6.59 | 3.33 | 9.67 | 14.3 | 4.1 | – | 7.02 | 1.81 | 8.26 | 5.93 | 11.4 | 7.07 | 8.39 | 6.17 | – | – | 1.1
7 | CNC(C)C(O)c1ccc2oc3cc(=O)c4ccccc4c-3nc2c1 (stereo not drawn) | – | 29.6 | 33.7 | 6.68 | 54.8 | – | 8.48 | 19.9 | 84.8 | 67 | 41.7 | 49.8 | 98.4 | > 100 | 21.8 | 61.4 | – | – | – | 50.6
8 | O=C1c2ccccc2OCC12OC21C=CC(Cl)=CC1 (stereo not drawn) | – | – | – | 28.3 | 23.5 | 43.8 | – | 44.8 | 46.8 | 65.1 | > 100 | 41.9 | – | – | 43.6 | 47.9 | 17.5 | – | – | 55
